Test results published in patent publication US20240308988A1, “Method For Controlling Diamide Resistant Pests and Compounds Therefor” (priority 2021, published 2024).

Each molecule was assayed on Plutella xylostella (Diamond back moth) ryanodine receptor, containing the G4946E resistance mutation (assay: In vitro calcium fluorescence assay (Fluo-8 NW, FDSS) in human embryonic kidney cells expressing the ryanodine receptor). Details: table; EC50 (compound)/EC50 (cyantraniliprole); G4946E RyR in HEK cells.
Assay type: cell-based
Protocol: Human embryonic kidney cells expressing the Plutella xylostella (Diamond back moth) ryanodine receptor, containing the G4946E resistance mutation, are loaded with Fluo-8 No Wash (NW) calcium-sensitive dye which responds by fluorescence to a change in intracellular calcium (e.g. stimulated by activation of ryanodine receptor). Test compounds are added in 10 rates to a 384-well plate containing dye-loaded cells and the fluorescent signal is measured using the Hamamatsu FDSS (Functional Drug Screening system). Dose-response curves are plotted to estimate the EC50. EC50 are normalized against an in-assay reference standard (cyantraniliprole) to address inter-assay variability. The ratio for a given compound is then obtained by the following formula:
REC50=EC50 (compound)/EC50 (cyantraniliprole).

Question: With Cc1cc(Cl)cc(C(N)=O)c1NC(=O)c1cc(OCC(F)(F)C(F)(F)F)nn1-c1ncccc1Cl [Compound P8, N-(2-carbamoyl-4-chloro-6-methyl-phenyl)-2-(3-chloro-2-pyridyl)-5-(2,2,3,3,3-pentafluoropropoxy)pyrazole-3-carboxamide] as the molecule, how does the “REC50 (Compound of the invention)” value read?
Answer: 0.14

Question: COc1cc(C(=O)Nc2c(C)cc(Cl)cc2C(N)=O)n(-c2ncccc2Cl)n1 [Compound P9, N-(2-carbamoyl-4-chloro-6-methyl-phenyl)-2-(3-chloro-2-pyridyl)-5-methoxy-pyrazole-3-carboxamide] was tested. Which “REC50 (Compound of the invention)” value did it give?
Answer: 0.37

Question: For Cc1cc(Cl)cc(C(N)=O)c1NC(=O)c1cc(OC(F)F)nn1-c1ncccc1Cl [Compound P21, N-(2-carbamoyl-4-chloro-6-methyl-phenyl)-2-(3-chloro-2-pyridyl)-5-(difluoromethoxy)pyrazole-3-carboxamide], which “REC50 (Compound of the invention)” value is on record?
Answer: 0.25

Question: Which “REC50 (Compound of the invention)” value does the source give for Cc1cc(Cl)cc(C(N)=O)c1NC(=O)c1cc(OCC(F)(F)F)nn1-c1ncccc1Cl [Compound P23, N-(2-carbamoyl-4-chloro-6-methyl-phenyl)-2-(3-chloro-2-pyridyl)-5-(2,2,2-trifluoroethoxy)pyrazole-3-carboxamide] here?
Answer: 0.17

Same assay, conditions: table; secondary amide analogue; EC50 (compound)/EC50 (cyantraniliprole); G4946E RyR in HEK cells

Question: For CNC(=O)c1cc(I)cc(F)c1NC(=O)c1cc(C(F)(F)F)nn1-c1ncccc1Cl, which “REC50 (Comparative compound)” value is on record?
Answer: 3.99

Question: For CNC(=O)c1cc(Br)cc(Br)c1NC(=O)c1cc(C(F)(F)F)nn1-c1ncccc1Cl, which “REC50 (Comparative compound)” value is on record?
Answer: 0.98

Question: Which “REC50 (Comparative compound)” value does the source give for CNC(=O)c1cc(Cl)cc(Cl)c1NC(=O)c1cc(OC)nn1-c1ncccc1Cl here?
Answer: 1.20

Question: With CNC(=O)c1cc(C#N)cc(C)c1NC(=O)c1cc(Cn2nnc(-c3ccc(C(F)(F)F)cc3)n2)nn1-c1ncccc1Cl as the molecule, how does the “REC50 (Comparative compound)” value read?
Answer: 2.41

Question: For CNC(=O)c1cc(C#N)cc(C)c1NC(=O)c1cc(C(F)(F)F)nn1-c1ncccc1Cl, which “REC50 (Comparative compound)” value is on record?
Answer: 3.65

Question: With Cc1cc(I)cc(C(=O)NC(C)C)c1NC(=O)c1cc(C(F)(F)F)nn1-c1ncccc1Cl as the molecule, how does the “REC50 (Comparative compound)” value read?
Answer: 3.13

Question: With CNC(=O)c1cc(I)cc(C)c1NC(=O)c1cc(Br)nn1-c1ncccc1Cl as the molecule, how does the “REC50 (Comparative compound)” value read?
Answer: 0.76

Question: For CNC(=O)c1cc(Cl)cc(Cl)c1NC(=O)c1cc(Br)nn1-c1ncc(Cl)cc1Cl, which “REC50 (Comparative compound)” value is on record?
Answer: 0.47

Question: Cc1cc(Br)cc(C(=O)NC(C)C)c1NC(=O)c1cc(C(F)(F)F)nn1-c1ncccc1Cl was tested. Which “REC50 (Comparative compound)” value did it give?
Answer: 8.84

Question: With CNC(=O)c1cc(Br)cc(Cl)c1NC(=O)c1cc(OC)nn1-c1ncccc1Cl as the molecule, how does the “REC50 (Comparative compound)” value read?
Answer: 1.32

Question: How did the “REC50 (Comparative compound)” value turn out when CNC(=O)c1cc(Br)cc(C)c1NC(=O)c1cc(OC)nn1-c1ncccc1Cl was run?
Answer: 1.39

Question: How did the “REC50 (Comparative compound)” value turn out when Cc1cc(Cl)cc(C(=O)NC(C)C)c1NC(=O)c1cc(COCc2ccc(Cl)cc2)nn1-c1ncccc1Cl was run?
Answer: 1.07

Question: How did the “REC50 (Comparative compound)” value turn out when COc1cc(C(=O)Nc2c(C)cc(Cl)cc2C(=O)NC(C)C)n(-c2ncccc2Cl)n1 was run?
Answer: 2.57

Question: Which “REC50 (Comparative compound)” value does the source give for CNC(=O)c1cc(Cl)cc(C)c1NC(=O)c1cc(C(F)(F)F)nn1-c1ncccc1Cl here?
Answer: 1.48

Question: For CNC(=O)c1cc(Cl)cc(C)c1NC(=O)c1cc(OC(F)F)nn1-c1ncccc1Cl, which “REC50 (Comparative compound)” value is on record?
Answer: 0.58

Question: How did the “REC50 (Comparative compound)” value turn out when CCc1cc(C(=O)Nc2c(C)cc(Cl)cc2C(=O)NC)n(-c2ncccc2Cl)n1 was run?
Answer: 1.41

Question: Which “REC50 (Comparative compound)” value does the source give for CNC(=O)c1cc(Cl)cc(C)c1NC(=O)c1cc(C2CC2)nn1-c1ncccc1Cl here?
Answer: 1.15

Question: Which “REC50 (Comparative compound)” value does the source give for CNC(=O)c1cc(Cl)cc(C)c1NC(=O)c1cc(OCC(F)(F)C(F)(F)F)nn1-c1ncccc1Cl here?
Answer: 1.85

Question: For CNC(=O)c1cc(Cl)cc(C)c1NC(=O)c1cc(OCC(F)(F)F)nn1-c1ncccc1Cl, which “REC50 (Comparative compound)” value is on record?
Answer: 1.29

Question: With CNC(=O)c1cc(C#N)cc(C)c1NC(=O)c1cc(Br)nn1-c1ncccc1Cl [Cyantraniliprole, cyantraniliprole, reference compound] as the molecule, how does the “REC50 (Comparative compound)” value read?
Answer: 1.00

Question: CC(NC(=O)c1cc(Cl)cc(Br)c1NC(=O)c1cc(Br)nn1-c1ncccc1Cl)C1CC1 (centres unmarked) [Cyclaniliprole, cyclaniliprole, reference compound] was tested. Which “REC50 (Comparative compound)” value did it give?
Answer: 4.70

What follows are molecules tested on Resistant Plutella xylostella R1 (multi-resistant larvae having the G4946E resistance mutation) (assay: Resistant Plutella xylostella R1 (Diamond back moth) larvicide L3, feeding/contact, sprayed Chinese cabbage leaves). Details: Plutella xylostella, 96 h, read-out: control of the resistant strain of Plutella xylostella R1.
Assay type: in vivo
Protocol: Resistant Plutella xylostella R1 (Diamond back moth) larvicide L3, feeding/contact Chinese cabbage plants were sprayed with diluted test solutions in an application chamber. Cut off leaves were placed into petri dishes with wetted filter paper and infested 1 day after application with 10 L3 multi-resistant Plutella xylostella larvae having the G4946E resistance mutation.
Samples were assessed 4 days after infestation for mortality and growth regulation.
Chlorantraniliprole was used as standard and a resistance factor of 146 was obtained for this strain.
Plutella xylostella resistant strain R1 originally collected from Taiwan in 2012 that carries the RyR mutation G4946E conferring resistance to diamides. The strain is reared on cabbage plants (Brassica aleracea) and selected approximately every two weeks with chlorantraniliprole.

Question: With Cc1cc(Cl)cc(C(N)=O)c1NC(=O)c1cc(Cn2nnc(C3CC3)n2)nn1-c1ncccc1Cl [Compound P2, N-(2-carbamoyl-4-chloro-6-methyl-phenyl)-2-(3-chloro-2-pyridyl)-5-[(5-cyclopropyltetrazol-2-yl)methyl]pyrazole-3-carboxamide] as the molecule, how does the pest or weed control at 50 µg/mL read?
Answer: ≥ 80%

Question: With Cc1cc(Cl)cc(C(N)=O)c1NC(=O)c1cc(Cn2nnc(-c3ccc(C(F)(F)F)cc3)n2)nn1-c1ncccc1Cl [Compound P6, N-(2-carbamoyl-4-chloro-6-methyl-phenyl)-2-(3-chloro-2-pyridyl)-5-[[5-[4-(trifluoromethyl)phenyl]tetrazol-2-yl]methyl]pyrazole-3-carboxamide] as the molecule, how does the pest or weed control at 50 µg/mL read?
Answer: ≥ 80%

Question: Cc1cc(Cl)cc(C(N)=O)c1NC(=O)c1cc(OCC(F)(F)C(F)(F)F)nn1-c1ncccc1Cl [Compound P8, N-(2-carbamoyl-4-chloro-6-methyl-phenyl)-2-(3-chloro-2-pyridyl)-5-(2,2,3,3,3-pentafluoropropoxy)pyrazole-3-carboxamide] was tested. Which pest or weed control at 50 µg/mL did it give?
Answer: ≥ 80%

Question: For COc1cc(C(=O)Nc2c(C)cc(Cl)cc2C(N)=O)n(-c2ncccc2Cl)n1 [Compound P9, N-(2-carbamoyl-4-chloro-6-methyl-phenyl)-2-(3-chloro-2-pyridyl)-5-methoxy-pyrazole-3-carboxamide], which pest or weed control at 50 µg/mL is on record?
Answer: ≥ 80%

Question: Which pest or weed control at 50 µg/mL does the source give for COc1cc(C(=O)Nc2c(C)cc(I)cc2C(N)=O)n(-c2ncccc2Cl)n1 [Compound P10, N-(2-carbamoyl-4-iodo-6-methyl-phenyl)-2-(3-chloro-2-pyridyl)-5-methoxy-pyrazole-3-carboxamide] here?
Answer: ≥ 80%

Question: Cc1cc(Cl)cc(C(N)=O)c1NC(=O)c1cc(Cn2nnnc2-c2ccc(C(F)(F)F)cc2)nn1-c1ncccc1Cl [Compound P15, N-(2-carbamoyl-4-chloro-6-methyl-phenyl)-2-(3-chloro-2-pyridyl)-5-[[5-[4-(trifluoromethyl)phenyl]tetrazol-1-yl]methyl]pyrazole-3-carboxamide] was tested. Which pest or weed control at 50 µg/mL did it give?
Answer: ≥ 80%

Question: For Cc1cc(Cl)cc(C(N)=O)c1NC(=O)c1cc(Cn2ncc(C(F)(F)F)n2)nn1-c1ncccc1Cl [Compound P19, N-(2-carbamoyl-4-chloro-6-methyl-phenyl)-2-(3-chloro-2-pyridyl)-5-[[4-(trifluoromethyl)triazol-2-yl]methyl]pyrazole-3-carboxamide], which pest or weed control at 50 µg/mL is on record?
Answer: ≥ 80%

Question: Which pest or weed control at 50 µg/mL does the source give for Cc1cc(Cl)cc(C(N)=O)c1NC(=O)c1cc(Cn2cc(C(F)(F)F)nn2)nn1-c1ncccc1Cl [Compound P20, N-(2-carbamoyl-4-chloro-6-methyl-phenyl)-2-(3-chloro-2-pyridyl)-5-[[4-(trifluoromethyl)triazol-1-yl]methyl] pyrazole-3-carboxamide] here?
Answer: ≥ 80%

Question: Which pest or weed control at 50 µg/mL does the source give for Cc1cc(Cl)cc(C(N)=O)c1NC(=O)c1cc(OC(F)F)nn1-c1ncccc1Cl [Compound P21, N-(2-carbamoyl-4-chloro-6-methyl-phenyl)-2-(3-chloro-2-pyridyl)-5-(difluoromethoxy)pyrazole-3-carboxamide] here?
Answer: ≥ 80%

Question: How did the pest or weed control at 50 µg/mL turn out when Cc1cc(Cl)cc(C(N)=O)c1NC(=O)c1cc(C(F)F)nn1-c1ncccc1Cl [Compound P22, N-(2-carbamoyl-4-chloro-6-methyl-phenyl)-2-(3-chloro-2-pyridyl)-5-(difluoromethyl)pyrazole-3-carboxamide] was run?
Answer: ≥ 80%

Question: Cc1cc(Cl)cc(C(N)=O)c1NC(=O)c1cc(OCC(F)(F)F)nn1-c1ncccc1Cl [Compound P23, N-(2-carbamoyl-4-chloro-6-methyl-phenyl)-2-(3-chloro-2-pyridyl)-5-(2,2,2-trifluoroethoxy)pyrazole-3-carboxamide] was tested. Which pest or weed control at 50 µg/mL did it give?
Answer: ≥ 80%

Question: For Cc1cc(C#N)cc(C(N)=O)c1NC(=O)c1cc(C(F)F)nn1-c1ncccc1Cl [Compound P28, N-(2-carbamoyl-4-cyano-6-methyl-phenyl)-2-(3-chloro-2-pyridyl)-5-(difluoromethyl)pyrazole-3-carboxamide], which pest or weed control at 50 µg/mL is on record?
Answer: ≥ 80%

Question: How did the pest or weed control at 50 µg/mL turn out when Cc1cc(C#N)cc(C(N)=O)c1NC(=O)c1cc(OCC(F)(F)F)nn1-c1ncccc1Cl [Compound P32, N-(2-carbamoyl-4-cyano-6-methyl-phenyl)-2-(3-chloro-2-pyridyl)-5-(2,2,2-trifluoroethoxy)pyrazole-3-carboxamide] was run?
Answer: ≥ 80%

Question: Which pest or weed control at 50 µg/mL does the source give for NC(=O)c1cc(Br)cc(Cl)c1NC(=O)c1cc(Cn2nnc(-c3ccc(C(F)(F)F)cc3)n2)nn1-c1ncccc1Cl [Compound P44, N-(4-bromo-2-carbamoyl-6-chloro-phenyl)-2-(3-chloro-2-pyridyl)-5-[[5-[4-(trifluoromethyl)phenyl]tetrazol-2-yl]methyl]pyrazole-3-carboxamide] here?
Answer: ≥ 80%

Question: Which pest or weed control at 50 µg/mL does the source give for NC(=O)c1cc(Cl)cc(Br)c1NC(=O)c1cc(Cn2nnc(-c3ccc(C(F)(F)F)cc3)n2)nn1-c1ncccc1Cl [Compound P57, N-(2-bromo-6-carbamoyl-4-chloro-phenyl)-2-(3-chloro-2-pyridyl)-5-[[5-[4-(trifluoromethyl)phenyl]tetrazol-2-yl]methyl]pyrazole-3-carboxamide] here?
Answer: ≥ 80%

Question: With Cc1cc(I)cc(C(N)=O)c1NC(=O)c1cc(Cn2nnc(-c3ccc(C(F)(F)F)cc3)n2)nn1-c1ncccc1Cl [Compound P62, N-(2-carbamoyl-4-iodo-6-methyl-phenyl)-2-(3-chloro-2-pyridyl)-5-[[5-[4-(trifluoromethyl)phenyl]tetrazol-2-yl]methyl]pyrazole-3-carboxamide] as the molecule, how does the pest or weed control at 50 µg/mL read?
Answer: ≥ 80%
